In patent publication US12552806B2, “Androgen receptor regulation by small molecule enantiomers” (University of Southern California, priority 2020, dated 2026):
“Also recorded” adds a separate entry of the source.

Assays:
AR = experiment: ARE-luciferase assay in cells expressing ARE-luciferase (enantiomer pairs); format: cell-based; conditions: 10 μM mixture + 1 nM R1881, 24 h
From the text: (§1) To test for corresponding transcriptional activation, we performed assays in cells expressing ARE-luciferase. […] Next, we examined gene expression in VCaP cells, a hormone-responsive but independent model of CRPC highly expressing AR.
(§2) PC3 and VCaP cell lines were obtained from ATCC and cultured as recommended. Generation and culture of PC3 GFP-AR cells were described previously (14). ARE-luciferase cells were generated using Cignal Lenti AR Reporter (Qiagen). Cell lines were authenticated using NIST-approved short tandem repeat DNA profiling and tested negative for mycoplasma. Drug treatments were conducted after overnight culture in phenol red-free media supplemented with charcoal:dextran stripped FBS.
(§3) Luminometer Assays. For ARE-luciferase, luciferase substrate was added to lysed cells after 24-h treatment. For viability, cells were lysed with CellTiter-Glo 3D Cell Viability Assay (Promega) after 6 d of treatment. Measurements were performed in 96-well plates (Corning) using a GloMax 96 Microplate Luminometer (Promega).

AR T878A = target: T1, AR T878A (Homo sapiens, UniProt P10275, T878A); experiment: cell-based; format: cell-based
T1 construct: LNCaP cells expressing AR T878A; endogenous in cells; host or cells: LNCaP-luc (LNCaP stably carrying the Cignal Lenti AR Reporter)
T1 sequence (P10275 1-920 T878A): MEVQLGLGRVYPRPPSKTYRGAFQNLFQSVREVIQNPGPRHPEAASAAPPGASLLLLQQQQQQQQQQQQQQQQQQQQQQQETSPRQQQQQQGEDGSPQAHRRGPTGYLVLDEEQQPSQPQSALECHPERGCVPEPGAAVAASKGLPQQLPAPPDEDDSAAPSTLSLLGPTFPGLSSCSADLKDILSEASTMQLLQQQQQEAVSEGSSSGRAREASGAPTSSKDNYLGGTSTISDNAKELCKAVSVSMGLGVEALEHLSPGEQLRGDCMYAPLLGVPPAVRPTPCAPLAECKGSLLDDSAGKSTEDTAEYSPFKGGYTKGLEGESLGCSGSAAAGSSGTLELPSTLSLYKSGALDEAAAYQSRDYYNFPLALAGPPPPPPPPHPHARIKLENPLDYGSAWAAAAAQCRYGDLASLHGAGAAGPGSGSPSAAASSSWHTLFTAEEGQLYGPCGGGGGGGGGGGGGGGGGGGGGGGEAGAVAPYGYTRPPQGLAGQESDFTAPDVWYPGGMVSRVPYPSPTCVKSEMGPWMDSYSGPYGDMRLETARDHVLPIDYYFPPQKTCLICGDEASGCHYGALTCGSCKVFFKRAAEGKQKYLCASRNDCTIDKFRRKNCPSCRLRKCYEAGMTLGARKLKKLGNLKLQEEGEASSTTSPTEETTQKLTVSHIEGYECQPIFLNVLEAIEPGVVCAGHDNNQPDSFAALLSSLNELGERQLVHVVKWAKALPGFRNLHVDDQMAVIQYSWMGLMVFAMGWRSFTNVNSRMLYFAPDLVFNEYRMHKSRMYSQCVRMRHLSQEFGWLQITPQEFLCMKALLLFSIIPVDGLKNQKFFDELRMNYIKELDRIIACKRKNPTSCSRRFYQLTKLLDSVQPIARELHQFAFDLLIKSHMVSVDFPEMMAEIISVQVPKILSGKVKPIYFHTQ
From the text: We generated a LNCaP cell line stably expressing luciferase controlled by androgen response elements (ARE-luciferase).
Cell Culture and Treatments. The LNCaP cell line were obtained from ATCC, cultured in RPMI1640 (Corning) supplemented with 10% heat-inactivated GemCell bovine serum (Gemini Bio-Products) and Penicillin-Streptomycin (Gemini Bio-Products). Cell lines stably expressing ARE-luciferase (LNCaP-luc) was generated using Cignal Lenti AR Reporter (Qiagen) and was continuously cultured with 500 ng/mL Puromycin (Gibco) for positive selection. Cells were maintained at 37° C. in a humidified incubator with 5% carbon dioxide. All cell lines were authenticated using NIST approved short tandem repeat (STR) DNA profiling performed by the University of Arizona Genetics Core and routinely tested negative for mycoplasma.
Luciferase assay. LNCaP-luc cells were seeded in clear flat bottom white polystyrene 96-well plates (Corning) at a density of 12,000 cells/well. […] Dose-response curves were fit using the delta method and t-distribution (n=1). Compounds are tested up to 10 μM.

[1] = Microsome stability assay; format: in vitro ADME, human; conditions: for toxic metabolite BMS-501949 detected in LCMS: 8 h incubation, o-fluoro-BMS-501949 for EITM-1707
Procedure: Microsome stability assays. In vitro metabolism was determined as described previously. Specifically, to measure metabolism of parent compounds, the higher throughput protocol was applied, in which 0.5 mg/ml pooled human liver microsomes (Sigma) were mixed with 1 μM drugs and phosphate buffer (0.1 M, pH 7.4) in 96-well plates. Enzymatic reactions were started by adding 1 mM NADPH (Sigma Aldrich) followed by incubation at 37° C. Fractions were quenched by transfer to ice-cold acetonitrile after the indicated incubation times. Samples were analyzed using liquid chromatography-mass spectrometry (LC/MS-MS). Rates of intrinsic clearance were determined from the amount of the parent compound consumed per min per mg of microsomal protein as described previously. To analyze accumulating metabolites, the basic protocol was used, and microsomes were incubated with 10 μM drugs for 8 h.

LNCaP cells = experiment: LNCaP cell viability assay (CellTiter-Glo); format: cell-based; conditions: 1 and 10 μM drug + 60 pM R1881, 5 days
Procedure: LNCaP cell viability assay. Cells were seeded into 96-well fibronectin coated (1 ug/cm^2) plates (CellCarrier, PerkinElmer) at a density of 5,000 cells/well. […] Drug-treated cells were lysed with CellTiter-Glo 3D Cell Viability Assay (Promega) and transferred to white 96-well plates (Corning). Luminescence was measured utilizing GloMax 96 Microplate Luminometer (Promega). Analysis was conducted in the R statistical environment (v 3.6.0). […] Visualizations were facilitated by the ggplot2 package (v3.2.1), with standard error (S.E.) shown where appropriate.

VCaP cells = experiment: VCaP viability assay (CellTiter-Glo); format: cell-based
Procedure: as §2, §3

[2] = system: AR-regulated genes in VCaP cells; experiment: RT-qPCR array of AR target genes in VCaP cells; format: cell-based; conditions: 82 AR target genes, vs NTC and DHT
Procedure: as §1
RT-qPCR Array. RNA was isolated using the Illustra RNAspin Mini Kit (GE Healthcare). RNA was transcribed to cDNA using RT2 First Strand Kit (Qiagen). RT-qPCR was performed using Biorad CFX Connect on a RT2 Profiler PCR Array Human Androgen Receptor Signaling Targets (Qiagen).

| SMILES | (S)-enantiomer contamination that halved the drug effect, ARE-luciferase (AR; 95% CI (2.1%, 2.9%)) [%] | (S)-enantiomer contamination that canceled out the antagonist effect, ARE-luciferase (AR; 95% CI (6.0%, 12.0%)) [%] | AR agonism / antagonism in LNCaP ARE-luciferase, in words (AR T878A) | EC50 (AR T878A) [nM] | Emax (AR T878A; LNCaP) [%] | toxic metabolite BMS-501949 detected in LCMS ([1]; 10 μM drug) | toxic metabolite BMS-501949 detected in LCMS ([1]; 10 μM drug, listed as (R)-EITM-1707) | active metabolite detected in LCMS ([1]; Unnamed metabolite (predicted active) for EITM compounds, BMS-570511 for BMS-641988, 10 μM drug, 8 h) | half-life at 1 μM ([1]; human, pooled human liver microsomes, pH 7.4, liver microsomes, 1 μM drug, read-out: T½) [min] | microsomal CLint at 1 μM ([1]; human, pooled human liver microsomes, pH 7.4, liver microsomes, read-out: rate of intrinsic clearance) [µL/min/mg] | LNCaP proliferation / viable cells, in words (LNCaP cells) | R1881-induced growth, in words (VCaP cells; 10 μM drug + 1 nM R1881, 6-d treatment) | IC50 (VCaP cells; Homo sapiens, VCaP) [nM] | AR-dependent gene expression, in words [2] |
| --- | --- | --- | --- | --- | --- | --- | --- | --- | --- | --- | --- | --- | --- | --- |
| C[C@@]12O[C@@](C)(C[C@@H]1NC(=O)c1cc[nH]n1)[C@@H]1C(=O)N(c3ccc(C#N)c(C(F)(F)F)c3)C(=O)[C@@H]12 [(S)-EITM-1702, N-((3aS,4S,5S,7S,7aR)-2-(4-cyano-3-(trifluoromethyl)phenyl)-4,7-dimethyl-1,3-dioxooctahydro-1H-4,7-epoxyisoindol-5-yl)-1H-pyrazole-3-carboxamide] | 2.5 | 9 |  |  |  |  |  |  |  |  |  |  |  |  |
| CC(O)c1cc(C(=O)N[C@@H]2C[C@@]3(C)O[C@]2(C)[C@@H]2C(=O)N(c4ccc(C#N)c(C(F)(F)F)c4F)C(=O)[C@@H]23)n[nH]1 (stereo partly drawn) [EITM-1707, N-((3aR,4R,5R,7R,7aS)-2-(4-cyano-2-fluoro-3-(trifluoromethyl)phenyl)-4,7-dimethyl-1,3-dioxooctahydro-1H-4,7-epoxyisoindol-5-yl)-5-(1-hydroxyethyl)-1H-pyrazole carboxamide] |  |  | pure antagonists | 940 | 13 | not detected | no | yes | 47.3 | 10.3 | inhibit LNCaP proliferation; also recorded: inhibited the growth of LNCaP prostate cancer cells | visibly suppressed R1881-induced growth | 410 | down-regulated AR-dependent gene expression |
